What all share (type): physicochemical
Data set [1] is described as follows: Storage of Form 1 at ambient conditions. As to the method: Formula (I) Form 1 exists at ambient conditions upon short term storage (i.e., less than 8 d). A mixture of formula (I) Forms 1 and 2 (16 mg) was weighed into a glass vial, and tetrahydrofuran (THF, 0.5 mL) was added. The resulting slurry was stirred at room temperature for about 4 d. The wet solids were analyzed by XRPD in transmission mode and confirmed to be crystalline formula (I) Form 1, as shown by XRPD analysis (FIG. 1).

Data set [2] can be described thus: Equilibrium solubility of formula (I) Form 2 in water. The following applies: for Final Form: solids checked by XRPD after 6 hrs; for solubility at 6 h: thermodynamic from solid, equilibrated 6 hrs, supernatant by HPLC. As to the method:
Equilibrium solubility of formula (I) Form 2 was measured in the water at 20° C. and 30° C. All samples were equilibrated at temperature for 6 hrs, and the solubility of supernatant was measured by HPLC, while the solids were checked by XRPD. (See Table 9.)

The nature of data set [3]: Solid stability of crystalline Form 2 on storage. To be noted: 7-8 days. As to the method: Samples of formula (I) crystalline Form 2 were stored as solids at 25° C./60% Relative Humidity (RH), 30° C./˜56%, and 40° C./75% RH for 7-8 days. The samples were prepared in duplicate with an offset of 2 weeks. Each replicate was stored in a different container.

Molecules are shown by their SMILES. ≈ marks a conversion by molar mass, not a printed value.

Results on two molecules are retold here after patent US11136300B2, “Crystalline forms of 3-substituted 1,2,4-oxadiazole” (Aurigene Discovery Technologies Limited, priority 2017, dated 2021).

Usually solubility stands for the concentration that dissolves in the medium under given conditions. Read a low solubility as a poorly soluble substance.

Turning to `CC(O)[C@H](NC(=O)N[C@@H](CC(N)=O)c1nc([C@@H](N)CO)no1)C(=O)O` (stereo partly drawn) [Form 1], the “time for which the form exists on short term storage” value in data set [1] is listed as “less than 8 d”.
For the molecule `CC(O)[C@H](NC(=O)N[C@@H](CC(N)=O)c1nc([C@@H](N)CO)no1)C(=O)O` (stereo partly drawn) [Form 2], the “form change during the solubility testing” value in data set [2] (20° C. and 30° C., XRPD (FIG. 6)) was “No form change was observed”. The “Final Form” value in data set [2] (20° C.) and in data set [2] (30° C.) was “Form 2” each time. Besides, the solubility at 6 h turned out to be 148 mg/mL (≈ 410 mM) in data set [2] (20° C.) and 166 mg/mL (≈ 459 mM) in data set [2] (30° C.). Also, the “solid form and particle morphology after storage” value in data set [3] (25° C./60% RH), in data set [3] (30° C./~56% RH) and in data set [3] (40° C./75% RH) was “remained unchanged” each time.
